From US20260001928A1 (CORTERIA PHARMACEUTICALS, priority 2022, published 2026)
*1 amine or outer side, *2 acyl side, *3 side chain or, on linkers, in order; H or OH if unused. Where a SMILES comes first, the peptide text is derived from it. Side-chain parts run from the residue outwards. [ ]: non-standard residue; d: D form. The star is where a group is joined. C16 diacid = O=C(O)CCCCCCCCCCCCCCC(=O)*; γGlu = O=C(O)[C@H](CCC(=O)[*:2])N[*:1]; αMeL = CC(C)C[C@](C)(N)C(=O)O; Pentanoyl = CCCCC(=O)*; Aib = CC(C)(N)C(=O)O; Butyryl = CCCC(=O)*

How the values were obtained:
CFR1R receptor = target: T1, CFR1R receptor (Homo sapiens, UniProt P34998); experiment: Activity at anti-target CFR1R receptor, cAMP assay in CRF1R-overexpression CHO-K1 cells; format: cell-based; conditions: 100% = Sauvagine at 100 nM; for EC50: cAMP
T1 construct: host or cells: CHO-K1 (clone 2)
T1 sequence (P34998 24-415): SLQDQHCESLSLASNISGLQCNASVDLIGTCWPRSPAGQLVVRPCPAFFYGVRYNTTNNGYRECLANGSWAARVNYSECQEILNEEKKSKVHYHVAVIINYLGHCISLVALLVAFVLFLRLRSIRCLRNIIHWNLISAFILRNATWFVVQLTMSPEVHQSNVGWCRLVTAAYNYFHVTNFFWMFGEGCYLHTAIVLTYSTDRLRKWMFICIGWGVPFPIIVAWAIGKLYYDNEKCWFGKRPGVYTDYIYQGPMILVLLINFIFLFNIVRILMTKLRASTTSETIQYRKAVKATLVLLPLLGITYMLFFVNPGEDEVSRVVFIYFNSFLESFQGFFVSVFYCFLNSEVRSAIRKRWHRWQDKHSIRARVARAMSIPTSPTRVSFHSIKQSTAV
In short: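 Signal is normalised to 100 nM Sauvagine, taken as 100% activation, in clone 2 cells plated at a final 4000 cells/well from frozen stocks.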

human CRF2a receptor = target: T2, human CRF2a receptor (Homo sapiens, UniProt Q13324); experiment: Activity at human CRF2a receptor, cAMP functional assay in TeloHEAC cells; format: cell-based; conditions: TeloHEAC cells stably expressing human CRF2a receptor, relative to urocortin 2 (100 nM = 100%)
T2 construct: expressed in transfected cells; host or cells: TeloHEAC cells
T2 sequence (Q13324 1-411): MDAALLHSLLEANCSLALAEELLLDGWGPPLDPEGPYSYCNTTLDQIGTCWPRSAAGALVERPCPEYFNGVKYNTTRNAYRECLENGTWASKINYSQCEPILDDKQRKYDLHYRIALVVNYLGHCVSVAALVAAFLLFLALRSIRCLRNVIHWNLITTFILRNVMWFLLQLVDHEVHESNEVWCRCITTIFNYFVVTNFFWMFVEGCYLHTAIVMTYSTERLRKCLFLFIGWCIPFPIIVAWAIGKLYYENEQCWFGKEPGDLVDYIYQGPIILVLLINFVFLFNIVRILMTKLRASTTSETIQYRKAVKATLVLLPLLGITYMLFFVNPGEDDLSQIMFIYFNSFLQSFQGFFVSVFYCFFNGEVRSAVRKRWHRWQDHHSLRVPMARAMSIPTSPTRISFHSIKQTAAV
In short: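 TeloHEAC cells stably expressing human CRF2a (10000 cells/well) were treated with 16-point 1:2 compound dilutions in HBSS/20 mM HEPES with IBMX for 30 min at 37° C. cAMP was read by HTRF (665/620 nm ratio). EC50 was the concentration giving 50% activation, with 100 nM urocortin 2 set as 100%.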

| Emax (% I) (CFR1R receptor) | EC50 (CFR1R receptor) | EC50 (human CRF2a receptor) | SMILES |
| --- | --- | --- | --- |
| 6 % I | > 250 nM | 0.49 nM | CC[C@H](C)[C@H](N)C(=O)N[C@H](C(=O)N[C@@H](CC(C)C)C(=O)N[C@@H](CO)C(=O)N[C@@H](CC(C)C)C(=O)N[C@@H](CC(=O)O)C(=O)N[C@H](C(=O)N1CCC[C@H]1C(=O)N[C@H](C(=O)N[C@@H](CCCCN)C(=O)N[C@@](C)(CC(C)C)C(=O)N[C@@H](CCCCNC(=O)CC[C@H](NC(=O)CCCCCCCCCCCCCCC(=O)O)C(=O)O)C(=O)N[C@@H](CCCCN)C(=O)N[C@H](C(=O)N[C@@H](CC(C)C)C(=O)N[C@@H](CC(C)C)C(=O)N[C@@H](CCC(=O)O)C(=O)N[C@@H](CCC(N)=O)C(=O)N[C@@H](CCC(=O)O)C(=O)N[C@@H](CCCCN)C(=O)N[C@@H](CCC(N)=O)C(=O)N[C@@H](CCCCN)C(=O)N[C@@H](CCCCN)C(=O)N[C@@H](CCC(N)=O)C(=O)N[C@@H](CCCNC(=N)N)C(=O)N[C@@H](CCC(=O)O)C(=O)N[C@@H](CCC(N)=O)C(=O)N[C@@H](C)C(=O)N[C@@H](CCC(=O)O)C(=O)N[C@H](C(=O)N[C@@H](CC(N)=O)C(=O)NC(C)(C)C(=O)N[C@@H](CCC(N)=O)C(=O)N[C@H](C(=O)N[C@@H](CC(C)C)C(=O)N[C@@H](C)C(=O)N[C@@H](CCC(N)=O)C(=O)N[C@H](C(N)=O)C(C)C)[C@@H](C)CC)[C@@H](C)O)[C@@H](C)CC)[C@@H](C)CC)C(C)C)C(C)C [compound 38] (H-IVLSLDVPIK[αMeL]K([γGlu-C16 diacid])KILLEQEKQKKQREQAETN[Aib]QILAQV-NH2) |
| 2 % I | > 250 nM | 0.53 nM | CC[C@H](C)[C@H](NC(C)=O)C(=O)N[C@H](C(=O)N[C@@H](CC(C)C)C(=O)N[C@@H](CO)C(=O)N[C@@H](CC(C)C)C(=O)N[C@@H](CC(=O)O)C(=O)N[C@H](C(=O)N1CCC[C@H]1C(=O)N[C@H](C(=O)N[C@@H](CCCCN)C(=O)N[C@@H](CC(C)C)C(=O)N[C@@H](CCCCNC(=O)CC[C@H](NC(=O)CCCCCCCCCCCCCCC(=O)O)C(=O)O)C(=O)N[C@@H](CCCCN)C(=O)N[C@H](C(=O)N[C@@H](CC(C)C)C(=O)N[C@@H](CC(C)C)C(=O)N[C@@H](CCC(=O)O)C(=O)N[C@@H](CCC(N)=O)C(=O)N[C@@H](CCC(=O)O)C(=O)N[C@@H](CCCCN)C(=O)N[C@@H](CCC(N)=O)C(=O)N[C@@H](CCCCN)C(=O)N[C@@H](CCCCN)C(=O)N[C@@H](CCC(N)=O)C(=O)N[C@@H](CCCNC(=N)N)C(=O)N[C@@H](CCC(=O)O)C(=O)N[C@@H](CCC(N)=O)C(=O)N[C@@H](C)C(=O)N[C@@H](CCC(=O)O)C(=O)N[C@H](C(=O)N[C@@H](CC(N)=O)C(=O)NC(C)(C)C(=O)N[C@@H](CCC(N)=O)C(=O)N[C@H](C(=O)N[C@@H](CC(C)C)C(=O)N[C@@H](C)C(=O)N[C@@H](CCC(N)=O)C(=O)N[C@H](C(N)=O)C(C)C)[C@@H](C)CC)[C@@H](C)O)[C@@H](C)CC)[C@@H](C)CC)C(C)C)C(C)C [compound 39] (Ac-IVLSLDVPIKLK([γGlu-C16 diacid])KILLEQEKQKKQREQAETN[Aib]QILAQV-NH2) |

The remaining lines, values behind:

| SMILES | Emax (% I) (CFR1R receptor) | EC50 (CFR1R receptor) | EC50 (human CRF2a receptor) |
| --- | --- | --- | --- |
| CCCC(=O)N[C@H](C(=O)N[C@@H](CC(C)C)C(=O)N[C@@H](CO)C(=O)N[C@@H](CC(C)C)C(=O)N[C@@H](CC(=O)O)C(=O)N[C@@H](C(=O)N1CCC[C@H]1C(=O)N[C@H](C(=O)N[C@@H](CCCCN)C(=O)N[C@@H](CC(C)C)C(=O)N[C@@H](CCCCNC(=O)CC[C@H](NC(=O)CCCCCCCCCCCCCCC(=O)O)C(=O)O)C(=O)N[C@@H](CCCCN)C(=O)N[C@H](C(=O)N[C@@H](CC(C)C)C(=O)N[C@@H](CC(C)C)C(=O)N[C@@H](CCC(=O)O)C(=O)N[C@@H](CCC(N)=O)C(=O)N[C@@H](CCC(=O)O)C(=O)N[C@@H](CCCCN)C(=O)N[C@@H](CCC(N)=O)C(=O)N[C@@H](CCCCN)C(=O)N[C@@H](CCCCN)C(=O)N[C@@H](CCC(N)=O)C(=O)N[C@@H](CCCNC(=N)N)C(=O)N[C@@H](CCC(=O)O)C(=O)N[C@@H](CCC(N)=O)C(=O)N[C@@H](C)C(=O)N[C@@H](CCC(=O)O)C(=O)N[C@H](C(=O)N[C@@H](CC(N)=O)C(=O)N[C@@H](CCCCN)C(=O)N[C@@H](CCC(N)=O)C(=O)N[C@H](C(=O)N[C@@H](CC(C)C)C(=O)N[C@@H](C)C(=O)N[C@@H](CCC(N)=O)C(=O)N[C@H](C(N)=O)C(C)C)[C@@H](C)CC)[C@@H](C)O)[C@@H](C)CC)[C@@H](C)CC)C(C)C)C(C)C [compound 36] (Butyryl-VLSLD[dV]PIKLK([γGlu-C16 diacid])KILLEQEKQKKQREQAETNKQILAQV-NH2) | 22 % I | > 250 nM | 0.14 nM |
| CCCCC(=O)N[C@H](C(=O)N[C@@H](CC(C)C)C(=O)N[C@@H](CO)C(=O)N[C@@H](CC(C)C)C(=O)N[C@@H](CC(=O)O)C(=O)N[C@@H](C(=O)N1CCC[C@H]1C(=O)N[C@H](C(=O)N[C@@H](CCCCN)C(=O)N[C@@H](CC(C)C)C(=O)N[C@@H](CCCCNC(=O)CC[C@H](NC(=O)CCCCCCCCCCCCCCC(=O)O)C(=O)O)C(=O)N[C@@H](CCCCN)C(=O)N[C@H](C(=O)N[C@@H](CC(C)C)C(=O)N[C@@H](CC(C)C)C(=O)N[C@@H](CCC(=O)O)C(=O)N[C@@H](CCC(N)=O)C(=O)N[C@@H](CCC(=O)O)C(=O)N[C@@H](CCCCN)C(=O)N[C@@H](CCC(N)=O)C(=O)N[C@@H](CCCCN)C(=O)N[C@@H](CCCCN)C(=O)N[C@@H](CCC(N)=O)C(=O)N[C@@H](CCCNC(=N)N)C(=O)N[C@@H](CCC(=O)O)C(=O)N[C@@H](CCC(N)=O)C(=O)N[C@@H](C)C(=O)N[C@@H](CCC(=O)O)C(=O)N[C@H](C(=O)N[C@@H](CC(N)=O)C(=O)N[C@@H](CCCCN)C(=O)N[C@@H](CCC(N)=O)C(=O)N[C@H](C(=O)N[C@@H](CC(C)C)C(=O)N[C@@H](C)C(=O)N[C@@H](CCC(N)=O)C(=O)N[C@H](C(N)=O)C(C)C)[C@@H](C)CC)[C@@H](C)O)[C@@H](C)CC)[C@@H](C)CC)C(C)C)C(C)C [compound 37] (Pentanoyl-VLSLD[dV]PIKLK([γGlu-C16 diacid])KILLEQEKQKKQREQAETNKQILAQV-NH2) | 22 % I | > 250 nM | 0.13 nM |
| CC[C@H](C)[C@H](NC(C)=O)C(=O)N[C@H](C(=O)N[C@@H](CC(C)C)C(=O)N[C@@H](CO)C(=O)N[C@@H](CC(C)C)C(=O)N[C@@H](CC(=O)O)C(=O)N[C@@H](C(=O)N1CCC[C@H]1C(=O)N[C@H](C(=O)N[C@@H](CCCCN)C(=O)N[C@@H](CC(C)C)C(=O)N[C@@H](CCCCNC(=O)CC[C@H](NC(=O)CC[C@H](NC(=O)CCCCCCCCCCCCCCC(=O)O)C(=O)O)C(=O)O)C(=O)N[C@@H](CCCCN)C(=O)N[C@H](C(=O)N[C@@H](CC(C)C)C(=O)N[C@@H](CC(C)C)C(=O)N[C@@H](CCC(=O)O)C(=O)N[C@@H](CCC(N)=O)C(=O)N[C@@H](CCC(=O)O)C(=O)N[C@@H](CCCCN)C(=O)N[C@@H](CCC(N)=O)C(=O)N[C@@H](CCCCN)C(=O)N[C@@H](CCCCN)C(=O)N[C@@H](CCC(N)=O)C(=O)N[C@@H](CCCNC(=N)N)C(=O)N[C@@H](CCC(=O)O)C(=O)N[C@@H](CCC(N)=O)C(=O)N[C@@H](C)C(=O)N[C@@H](CCC(=O)O)C(=O)N[C@H](C(=O)N[C@@H](CC(N)=O)C(=O)NC(C)(C)C(=O)N[C@@H](CCC(N)=O)C(=O)N[C@H](C(=O)N[C@@H](CC(C)C)C(=O)N[C@@H](C)C(=O)N[C@@H](CCC(N)=O)C(=O)N[C@H](C(N)=O)C(C)C)[C@@H](C)CC)[C@@H](C)O)[C@@H](C)CC)[C@@H](C)CC)C(C)C)C(C)C [compound 41] (Ac-IVLSLD[dV]PIKLK([γGlu-γGlu-C16 diacid])KILLEQEKQKKQREQAETN[Aib]QILAQV-NH2) | 7 % I | > 250 nM | 1.85 nM |
